Results as given in patent publication US20100256214A1, “EPH RECEPTOR LIGANDS AND METHODS OF USE” (Burnham Institute for Medical Research, priority 2009, published 2010).

Tests used:
[1] = molecular target: EphA2 (Homo sapiens, UniProt P29317); assay: EphA2 tyrosine phosphorylation in PC3 cells; assay type: cell-based; parameters: endogenous in cells; host or cells: PC3
Protocol: FIGS. 9A-9G. A. PC3 cells pretreated for 15 min with the indicated concentrations of compound 1 or compound 2 were stimulated with 0.5 μg/mL ephrin-A1 Fc (+) or Fc as a control (−) for 20 min in the continued presence of the compounds. EphA2 immunoprecipitates were probed with anti-phosphotyrosine antibody (PTyr) and reprobed for EphA2. C indicates immunoprecipitations performed with control antibodies. B. Histogram showing the levels of EphA2 phosphorylation normalized to the amount of immunoprecipitated EphA2. Error bars indicate standard error from 3 experiments. Receptor phosphorylation levels were compared with those in the ephrin-stimulated cells by one-way ANOVA and Dunnett's post test. *P<0.05 and *P<0.01. C. PC3 cells stimulated with compound 1 as in (A) were stained with rhodamine-phalloidin to label actin filaments and DAPI to label nuclei. DMSO was used as a control (0 μM). […] Cells having rounded shape and area less than 20% of the mean value obtained for the Fc stimulated cells were scored as retracting. […]
Measurement of Receptor Tyrosine Phosphorylation in Cells—HT22 neuronal cells, which endogenously express EphA4, are derived from immortalized mouse hippocampal neurons (Li et al. (1997) Neuron 19(2), 453-463). […] The protein concentration was calculated using the BCA protein assay kit (Pierce Biotecnology, Rockford, Ill.). […]

[2] = molecular target: T1, EphA4 ligand-binding domain (Homo sapiens, UniProt P54764, C204A); assay: Isothermal titration calorimetry with EphA4 ligand-binding domain; conditions: ITC; for Ka / Kb: 10 mM phosphate buffer pH 6.3, 25° C.
T1 construct: His-tagged fusion partner of modified pET32a (N, cleaved yes); made in house; host or cells: E. coli Rosetta-gami (DE3)
Protocol: The free Cys176 in this extra tail was mutated to Ala by use of the site-directed mutagenesis kit (Stratagene) to avoid the formation of non-native disulfide bridges.
Titrations were conducted in 10 mM phosphate buffer (pH 6.3) at 25° C. […] The powders of the two compounds were weighted and then dissolved in 10 mM phosphate buffer with the final pH values adjusted to 6.3. The EphA4 receptor at a concentration of 70 μM was placed in a 1.8 ml sample cell while the compounds at a concentration of 2 mM were loaded into a 300 μL syringe. The samples were degassed for 15 min to remove bubbles before the titrations were initiated. Control experiments with the same parameter settings were also performed for the two compounds without EphA4, to subtract the effects due to sample dilution. To obtain thermodynamic binding parameters, the titration data after subtracting the values obtained from the control experiments were fit to a single binding site model using the built-in software ORIGIN version 5.0 (Microcal Software Inc.).

T1 sequence (P54764 29-209 C204A): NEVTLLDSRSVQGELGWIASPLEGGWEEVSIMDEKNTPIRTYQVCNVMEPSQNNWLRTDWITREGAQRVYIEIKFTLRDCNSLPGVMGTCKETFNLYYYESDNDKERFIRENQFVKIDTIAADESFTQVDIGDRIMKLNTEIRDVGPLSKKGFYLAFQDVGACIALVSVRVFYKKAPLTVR
Chain of EphA2 (P29317 24-976): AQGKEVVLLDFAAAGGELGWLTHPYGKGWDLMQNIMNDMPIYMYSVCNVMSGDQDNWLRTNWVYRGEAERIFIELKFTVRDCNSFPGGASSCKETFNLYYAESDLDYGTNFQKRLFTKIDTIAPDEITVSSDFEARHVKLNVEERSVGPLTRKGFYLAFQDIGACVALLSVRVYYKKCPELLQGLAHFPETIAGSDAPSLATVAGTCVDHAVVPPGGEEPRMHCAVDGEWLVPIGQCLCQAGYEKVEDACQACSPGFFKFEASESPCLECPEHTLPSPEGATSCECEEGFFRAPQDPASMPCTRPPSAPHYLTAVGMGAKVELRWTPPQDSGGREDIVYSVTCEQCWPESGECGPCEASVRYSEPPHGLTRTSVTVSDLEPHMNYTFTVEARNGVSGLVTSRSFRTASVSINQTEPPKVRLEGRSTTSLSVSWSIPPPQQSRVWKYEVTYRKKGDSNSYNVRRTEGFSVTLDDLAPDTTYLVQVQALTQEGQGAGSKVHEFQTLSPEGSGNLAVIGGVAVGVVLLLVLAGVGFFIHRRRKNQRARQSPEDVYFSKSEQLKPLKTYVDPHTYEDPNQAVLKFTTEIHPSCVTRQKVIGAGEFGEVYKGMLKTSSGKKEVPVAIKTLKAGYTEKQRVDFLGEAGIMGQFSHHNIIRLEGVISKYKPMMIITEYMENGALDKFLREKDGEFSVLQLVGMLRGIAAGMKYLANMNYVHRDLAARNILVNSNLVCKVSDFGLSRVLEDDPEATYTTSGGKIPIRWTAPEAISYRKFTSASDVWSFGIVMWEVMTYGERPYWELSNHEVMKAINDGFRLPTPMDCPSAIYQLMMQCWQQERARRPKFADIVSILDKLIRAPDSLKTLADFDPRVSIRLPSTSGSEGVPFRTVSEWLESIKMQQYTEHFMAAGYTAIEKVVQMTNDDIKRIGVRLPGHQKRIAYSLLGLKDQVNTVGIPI

## Cc1ccc(C)n1-c1ccc(C(=O)O)c(O)c1 [compound 1, 4-(2,5-dimethyl-pyrrol-1-yl)-2-hydroxy-benzoic acid]
[1]
  EphA2 activation following stimulation with ephrin-A1 Fc: blocked
[2]
  Kd: 20.4 µM
  Stoichiometry: 1.000 ± 0
  ΔH, enthalpy change of binding: −1,001 cal
  ΔS: 18.11 cal/mol*K
  Ka: 48930 M⁻¹
  Kb: 20.4 µM

## Cc1ccc(C)n1-c1ccc(O)c(C(=O)O)c1 [compound 2, 5-(2,5 dimethyl-pyrrol-1-yl)-2-hydroxy-benzoic acid]
[1]
  EphA2 activation following stimulation with ephrin-A1 Fc: blocked
[2]
  Kd: 26.4 µM
  Stoichiometry: 1.000 ± 0
  ΔH, enthalpy change of binding: -237 cal
  ΔS: 20.15 cal/mol*K
  Ka: 37850 M⁻¹
  Kb: 26.4 µM
